Here are results for one molecule from patent US20090098209A1, “PHARMACEUTICAL CO[…]-SOLUBLE DERIVATIVES OF PROPOFOL AND METHODS OF ADMINISTERING SAME VIA PULMONARY ADMINISTRATION” (UNIVERSITY OF KANSAS, priority 2007, published 2009).

Each structure is given as a SMILES string.

A short description of data set [1]: Study 1: pulmonary delivery by nebulizer and facemask, plasma propofol and sedation. Format: in vivo. The note with it: one male beagle dog, inhalation of 3 mL of 250 mg/mL aqueous solution over approximately 10 min. The protocol:
(§1) A preliminary study was conducted to assess the conversion of O-phosphonooxymethyl propofol disodium salt to the pharmacologically active drug propofol following pulmonary delivery. A male beagle dog was fasted overnight prior to the study. O-phosphonooxymethyl propofol disodium salt was dissolved in water (250 mg/mL). 3-mL of the O-phosphonooxymethyl propofol disodium salt solution was delivered over approximately 10 min to the dog via inhalation through a nebulizer connected to a facemask that was placed over the dog's muzzle. The actual dose of O-phosphonooxymethyl propofol disodium salt delivered to the dog is less than the dose nebulized due to vapor loss during exhalation. Two mL blood samples were collected via a catheter placed in the cephalic vein prior to the study. Samples were collected for 1.5 hours post-dose at 5, 10, 20, 30, 40, 50, 60 and 90 minutes after initiation of delivery by inhalation. The concentration of propofol in the blood samples was determined using HPLC with fluorescence detection.
These finding are significant, as it is known that humans are more susceptible to the affects of propofol than dogs. Therefore, the onset of action would be very rapid in humans.

Data set [2] can be described thus: Study 2: pulmonary delivery by nebulizer for a defined time (10 min), plasma propofol and sedation. The data set is classed as in vivo. The note with it: three male beagle dogs, 250 mg/mL aqueous solution nebulized for 10 min. On the procedure:
as §1, with “A second” for “A preliminary”, “delivery. The study design was essentially the same as Study 1 above except that the O-phosphonooxymethyl propofol disodium salt solution was nebulized for a defined period of time (10 min) instead of to complete nebulization of the solution. Three” for “delivery. A”, “beagle dogs” for “beagle dog”, “mg/mL). The” for “mg/mL). 3-mL of the”, “delivered for” for “delivered over approximately”
These finding are significant, as it is known that humans are more susceptible to the effects of propofol than dogs. […]

Where [3] appears, read: sample at 5 minutes post dose initiation, HPLC with fluorescence detection.

Regarding `CC(C)c1cccc(C(C)C)c1OCOP(=O)([O-])[O-].[Na+].[Na+]` [O-phosphonooxymethyl propofol disodium salt], the “signs of sedation, time after the completion of the inhaled dose” value is “approximately 15 minutes” in data set [1] and 10 to 15 min in data set [2]. Further, the “concentration of propofol in the plasma, first blood sample” value in data set [1] (setting [3]) and in data set [2] (setting [3]) was “significant concentration of propofol in the plasma” each time.
